Paper PMC11790914, “Chemogenomics for steroid hormone receptors (NR3)” (Communications Chemistry, 2025)
Several values for one entry are separate records, joined by “and”; a condition that tells them apart may be missing. Identical values can stand only once.

Tests used:
HEK293T cells [1] = test: Cytotoxicity: growth-rate (change in confluence over 24 h); conditions: normalized to 0.1% DMSO control, single replicates (n=1...)
CDK2 = molecular target: T1, CDK2 (Homo sapiens, UniProt P24941); test: Liability panel screening by DSF: CDK2; format: binding; conditions: DSF, 20 µM, n=2; for ΔTm at 20 µM: read-out: Mean ΔTM CDK2
T1 construct: made in house
Method in brief: (§1)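 Thermal shift: in-house recombinant protein at 2 µM in 10 mM HEPES pH 7.5 with 500 mM NaCl, SYPRO Orange 1:1000, heated at 3 °C/min to 85 °C in technical duplicates. Tm is the Boltzmann inflection point, reported as ∆Tm in K.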

CSNK1D = molecular target: T2, CSNK1D (Homo sapiens, UniProt P48730); test: Liability panel screening by DSF: CSNK1D; format: binding; conditions: DSF, 20 µM, n=2; for ΔTm at 20 µM: read-out: Mean ΔTM CSNK1D
T2 construct: made in house
T2 sequence (P48730 whole entry, species assumed): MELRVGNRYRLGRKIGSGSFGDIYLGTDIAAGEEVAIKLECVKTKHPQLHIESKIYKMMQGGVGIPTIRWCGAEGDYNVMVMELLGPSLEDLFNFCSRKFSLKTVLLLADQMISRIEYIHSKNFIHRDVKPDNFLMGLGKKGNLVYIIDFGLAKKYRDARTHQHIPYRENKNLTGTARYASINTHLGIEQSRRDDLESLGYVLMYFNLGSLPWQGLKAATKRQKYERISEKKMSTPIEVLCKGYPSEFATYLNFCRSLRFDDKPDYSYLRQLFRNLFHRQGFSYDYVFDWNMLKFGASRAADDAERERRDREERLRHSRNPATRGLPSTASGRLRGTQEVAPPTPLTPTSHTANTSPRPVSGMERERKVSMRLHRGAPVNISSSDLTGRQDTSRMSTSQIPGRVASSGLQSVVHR
Method in brief: as §1

FGFR3 = molecular target: T3, FGFR3 (Homo sapiens, UniProt P22607); test: Liability panel screening by DSF: FGFR3; format: binding; conditions: DSF, 20 µM, n=2; for ΔTm at 20 µM: read-out: Mean ΔTM FGFR3
T3 construct: made in house
T3 sequence (P22607 23-806, species assumed): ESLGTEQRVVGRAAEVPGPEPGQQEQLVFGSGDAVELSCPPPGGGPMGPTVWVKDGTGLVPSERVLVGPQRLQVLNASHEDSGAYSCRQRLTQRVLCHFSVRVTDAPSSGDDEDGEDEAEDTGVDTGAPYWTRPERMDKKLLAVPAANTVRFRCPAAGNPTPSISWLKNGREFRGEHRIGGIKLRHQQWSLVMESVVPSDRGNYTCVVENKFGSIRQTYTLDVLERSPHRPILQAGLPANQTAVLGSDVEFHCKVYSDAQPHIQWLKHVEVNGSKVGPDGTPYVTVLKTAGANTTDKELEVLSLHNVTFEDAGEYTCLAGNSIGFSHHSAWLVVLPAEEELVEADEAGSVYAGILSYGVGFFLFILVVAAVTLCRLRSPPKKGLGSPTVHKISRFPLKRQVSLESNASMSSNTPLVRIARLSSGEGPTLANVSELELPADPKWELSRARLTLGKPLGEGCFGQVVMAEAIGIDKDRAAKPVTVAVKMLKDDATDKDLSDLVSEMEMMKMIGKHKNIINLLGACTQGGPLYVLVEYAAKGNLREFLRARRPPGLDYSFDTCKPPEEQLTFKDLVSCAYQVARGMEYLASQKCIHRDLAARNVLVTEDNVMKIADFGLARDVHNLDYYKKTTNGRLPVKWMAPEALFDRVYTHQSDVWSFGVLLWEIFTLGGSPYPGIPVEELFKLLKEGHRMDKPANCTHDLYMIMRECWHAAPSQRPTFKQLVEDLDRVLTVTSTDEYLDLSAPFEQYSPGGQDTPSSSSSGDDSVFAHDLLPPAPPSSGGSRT
Method in brief: as §1

BRD4 = molecular target: T4, BRD4 (Homo sapiens, UniProt O60885); test: Liability panel screening by DSF: BRD4; format: binding; conditions: DSF, 20 µM, n=2; for ΔTm at 20 µM: read-out: Mean ΔTM BRD4
T4 construct: This panel comprised ten highly ligandable kinases and bromodomains; made in house
Method in brief: as §1

HEK293T cells [2] = test: Cytotoxicity: apoptosis induction (caspase-3/7 DEVD fluorogenic DNA dye); conditions: for Apoptosis induction [AI]: single replicates, DMSO 0.1% = 1.00
AURKA = molecular target: T5, AURKA (Homo sapiens, UniProt O14965); test: Liability panel screening by DSF: AURKA; format: binding; conditions: DSF, 20 µM, n=2; for ΔTm at 20 µM: read-out: Mean ΔTM AURKA
T5 construct: made in house
T5 sequence (O14965 1-403): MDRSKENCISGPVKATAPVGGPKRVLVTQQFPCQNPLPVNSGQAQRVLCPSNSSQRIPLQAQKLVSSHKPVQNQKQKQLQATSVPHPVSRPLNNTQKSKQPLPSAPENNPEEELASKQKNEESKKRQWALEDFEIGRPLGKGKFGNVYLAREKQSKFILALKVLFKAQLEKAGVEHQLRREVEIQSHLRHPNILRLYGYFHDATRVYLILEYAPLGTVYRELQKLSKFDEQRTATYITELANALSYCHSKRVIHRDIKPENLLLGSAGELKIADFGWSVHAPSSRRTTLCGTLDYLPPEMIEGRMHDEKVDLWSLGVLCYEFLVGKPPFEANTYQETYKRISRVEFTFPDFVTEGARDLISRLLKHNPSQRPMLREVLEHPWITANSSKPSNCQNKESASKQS
Method in brief: as §1

TRIM24 = molecular target: T6, TRIM24 (Homo sapiens, UniProt O15164); test: Liability panel screening by DSF: TRIM24; format: binding; conditions: DSF, 20 µM, n=2; for ΔTm at 20 µM: read-out: Mean ΔTM TRIM24
T6 construct: This panel comprised ten highly ligandable kinases and bromodomains; made in house
T6 sequence (O15164 899-1004 limits assumed): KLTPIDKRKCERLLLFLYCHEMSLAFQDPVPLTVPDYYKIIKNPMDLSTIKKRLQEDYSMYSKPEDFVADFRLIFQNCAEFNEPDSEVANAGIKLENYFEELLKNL
Method in brief: as §1

MAPK1 = molecular target: T7, MAPK1 (Homo sapiens, UniProt P28482); test: Liability panel screening by DSF: MAPK1; format: binding; conditions: DSF, 20 µM, n=2; for ΔTm at 20 µM: read-out: Mean ΔTM MAPK1
T7 construct: made in house
T7 sequence (P28482 whole entry, species assumed): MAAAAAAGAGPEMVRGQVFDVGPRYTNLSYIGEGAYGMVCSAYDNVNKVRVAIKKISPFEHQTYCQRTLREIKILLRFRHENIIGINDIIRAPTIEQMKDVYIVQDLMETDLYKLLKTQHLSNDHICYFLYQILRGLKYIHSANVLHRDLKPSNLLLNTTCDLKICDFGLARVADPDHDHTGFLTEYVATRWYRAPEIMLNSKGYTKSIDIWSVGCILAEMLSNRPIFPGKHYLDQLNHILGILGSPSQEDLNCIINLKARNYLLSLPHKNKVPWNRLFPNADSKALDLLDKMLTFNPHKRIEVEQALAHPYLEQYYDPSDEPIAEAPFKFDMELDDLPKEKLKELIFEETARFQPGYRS
Method in brief: as §1

HEK293T cells [3] = test: Cytotoxicity: metabolic activity (WST-8 / CCK-8 assay); conditions: single replicates, DMSO 0.1% = 1.00
Protocol: Cells were incubated with the test compounds at the indicated concentrations solubilized with 0.1% DMSO for 24 h. Growth-rate was determined based on the change in confluence over 24 h normalized to the change in confluence of cells treated with the 0.1% DMSO control (n = 10). Metabolic activity was determined with a water-soluble tetrazolium-8 (WST-8) assay (n = 8) after 24 h treatment. Apoptotic cells were detected with a fluorogenic DNA dye coupled to the caspase-3/7 recognition sequence (DEVD) after 24 h treatment and the apoptotic cell count was normalized to 0.1% DMSO treated cells (n = 6).
HEK293T cells (German Collection of Microorganisms and Cell Culture GmbH, DSMZ; #ACC305) were cultured in DMEM high glucose, supplemented with 10% fetal calf serum (FCS), sodium pyruvate (1 mM), penicillin (100 µ/mL) and streptomycin (100 µg/mL) at 37 °C and 5% (v/v) CO2, and seeded in pre-coated (10 µg/mL collagen G solution (Merck KgaA; #L7213) for 30 min at 37 °C) 96-well plates (2 × 10^5 cells per well). After 24 h, the cells were treated with the respective NR3 CG compound candidate at the recommended concentration, bexarotene (100 µM) or doxorubicin (30 µM) as positive controls in DMEM high glucose supplemented with 0.1% FCS, penicillin (100 µ/mL), streptomycin (100 µg/mL) and 0.1% DMSO, or 0.1% DMSO alone as an untreated control. Each sample was prepared in at least four biologically independent replicates. […] Thereafter, the medium was aspirated and the cells were incubated for 3 h with 90 µL DMEM high glucose supplemented with 0.2% FCS, penicillin (100 µ/mL) and streptomycin (100 µg/mL) and additionally containing 10 µL Cell Counting Kit 8 solution (CCK-8; MedChemExpress, Monmouth Junction, New York, USA; #HY-K0301), and absorbance was measured at 1 h, 2 h and 3 h of incubation at 450 nm on a Tecan Spark Cyto to assess metabolic activity of the cells. Before drug administration, after the first medium exchange, 24 h after drug administration, and after fluorescence imaging cell confluence was assessed using the Tecan Spark Cyto, to account for changes in cell confluence due to drug administration and cell handling. Compound effects on cell confluence, apoptosis, metabolic activity and necrosis were normalized to the vehicle control of each biological replicate individually.

ABL1 = molecular target: T8, ABL1 (Homo sapiens, UniProt P00519); test: Liability panel screening by DSF: ABL1; format: binding; conditions: DSF, 20 µM, n=2; for ΔTm at 20 µM: read-out: Mean ΔTM ABL1
T8 construct: made in house
T8 sequence (P00519 whole entry, species assumed): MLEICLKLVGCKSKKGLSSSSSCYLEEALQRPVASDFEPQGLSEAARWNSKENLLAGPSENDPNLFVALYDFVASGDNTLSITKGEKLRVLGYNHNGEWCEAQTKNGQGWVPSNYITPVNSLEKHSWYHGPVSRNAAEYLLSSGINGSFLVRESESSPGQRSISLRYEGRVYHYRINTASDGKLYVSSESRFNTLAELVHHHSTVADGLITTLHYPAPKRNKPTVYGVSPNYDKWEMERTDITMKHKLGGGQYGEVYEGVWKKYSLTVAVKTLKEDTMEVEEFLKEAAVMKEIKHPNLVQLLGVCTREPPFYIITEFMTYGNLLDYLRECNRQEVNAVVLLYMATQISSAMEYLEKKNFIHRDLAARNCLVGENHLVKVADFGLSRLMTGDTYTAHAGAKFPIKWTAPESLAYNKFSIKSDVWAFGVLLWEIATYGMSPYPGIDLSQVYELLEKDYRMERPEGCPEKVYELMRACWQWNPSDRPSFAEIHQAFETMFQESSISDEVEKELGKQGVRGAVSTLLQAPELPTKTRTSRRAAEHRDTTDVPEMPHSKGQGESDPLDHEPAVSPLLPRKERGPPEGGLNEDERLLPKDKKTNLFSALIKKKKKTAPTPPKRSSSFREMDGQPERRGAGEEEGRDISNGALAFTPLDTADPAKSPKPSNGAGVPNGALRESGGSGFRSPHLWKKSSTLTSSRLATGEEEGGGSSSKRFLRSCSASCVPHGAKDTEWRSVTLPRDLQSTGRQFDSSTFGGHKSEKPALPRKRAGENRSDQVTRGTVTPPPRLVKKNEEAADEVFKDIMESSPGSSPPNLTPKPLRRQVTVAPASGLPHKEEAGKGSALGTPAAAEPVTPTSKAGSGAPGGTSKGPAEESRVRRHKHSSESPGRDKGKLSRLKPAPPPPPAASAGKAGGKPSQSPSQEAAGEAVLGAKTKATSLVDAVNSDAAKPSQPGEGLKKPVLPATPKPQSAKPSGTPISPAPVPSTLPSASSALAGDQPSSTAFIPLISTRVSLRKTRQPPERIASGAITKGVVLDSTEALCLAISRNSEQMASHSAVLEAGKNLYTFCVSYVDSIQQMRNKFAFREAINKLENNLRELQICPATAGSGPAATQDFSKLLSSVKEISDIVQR
Method in brief: as §1

SMILES	ΔTm at 20 µM (CDK2) [°C]	ΔTm at 20 µM (CSNK1D) [°C]	ΔTm at 20 µM (FGFR3) [°C]	ΔTm at 20 µM (BRD4) [°C]	ΔTm at 20 µM (AURKA) [°C]	ΔTm at 20 µM (TRIM24) [°C]	ΔTm at 20 µM (MAPK1) [°C]	ΔTm at 20 µM (ABL1) [°C]	Mean ΔTM CDK2 (CDK2) [K]	Mean ΔTM CSNK1D (CSNK1D) [K]	Mean ΔTM BRD4 (BRD4) [K]	Mean ΔTM AURKA (AURKA) [K]	Mean ΔTM TRIM24 (TRIM24) [K]	Mean ΔTM MAPK1 (MAPK1) [K]	Mean ΔTM ABL1 (ABL1) [K]	Growth rate [GR] (HEK293T cells [1]; 3 µM)	Apoptosis induction [AI] (HEK293T cells [2]; 3 µM)	Metabolic activity [MA] (HEK293T cells [3]; 3 µM)	other results
CC/C(=C(/c1ccc(/C=C/C(=O)O)cc1)c1ccc2[nH]ncc2c1)c1ccc(F)cc1Cl [ARN810]	-3.66	-4.37	-5.4	-0.16	1.69	0	0	-5.16											Growth rate [GR] (HEK293T cells [1]; 1 µM): 0.88 and 0.90 and 1.13 and 0.87 and 1.11 and 0.85; Apoptosis induction [AI] (HEK293T cells [2]; 1 µM): 0.78 and 0.92; Metabolic activity [MA] (HEK293T cells [3]; 1 µM): 0.99 and 1.09 and 0.98 and 0.97 and 1.01 and 1.03
COc1ccc(-c2coc3cc(O)cc(O)c3c2=O)cc1 [Biochanin A]									1.69	-0.77	0.32	1.95	2.59	0.55	1.61				Growth rate [GR] (HEK293T cells [1]; 10 µM): 0.50 and 0.90 and 0.87 and 0.72 and 0.82 and 0.61; Mean ΔTM FGFR3 (FGFR3): 1.13 K; Apoptosis induction [AI] (HEK293T cells [2]; 10 µM): 0.76 and 0.84; Metabolic activity [MA] (HEK293T cells [3]; 10 µM): 0.87 and 0.81 and 1.01 and 0.90 and 1.15 and 0.98
CCCC1O[C@@H]2C[C@H]3[C@@H]4CCC5=CC(=O)C=C[C@]5(C)[C@H]4[C@@H](O)C[C@]3(C)[C@]2(C(=O)CO)O1 (some centres unmarked) [Budesonide]	0.00668	-0.0262	-0.77	-1.67	-0.16	-0.81	-0.27	0.48								0.90 and 1.09 and 1.10 and 0.85 and 0.69 and 0.78	1.77 and 1.74	0.86 and 0.88 and 1.03 (2×) and 1.13 and 0.99	Growth rate [GR] (HEK293T cells [1]; 0.3 µM): 0.59 and 0.92 (3×) and 1.24 and 0.68; Apoptosis induction [AI] (HEK293T cells [2]; 0.3 µM): 1.00 and 1.74; apoptosis induction (HEK293T cells [2]; HEK293T, 24 h, budesonide (3 µM), others at tested concentration): slight apoptosis induction; Metabolic activity [MA] (HEK293T cells [3]; 0.3 µM): 1.02 and 0.97 and 1.07 and 0.99 and 1.12 and 1.03
C/C=C1\C(=O)C[C@H]2[C@@H]3CCC4=CC(=O)CC[C@]4(C)[C@H]3CC[C@]12C [Z-Guggulsterone]									-0.30	0.63	-2.62	-1.78	-2.32	0.47	0.07	0.73 and 0.88 and 1.06 and 0.96 and 0.82 and 1.15	0.63 and 1.35	1.00 and 0.94 and 1.08 and 1.06 and 1.18 and 1.15	
